# According to patent US9579296B2, “Compositions and methods for transdermal delivery of hormones and other medicinal agents” (Teikoku Pharma USA, Inc., priority 2012, dated 2017):
# Where two headings read alike, the source gives them in different places.
# Method: To assay transdermal flux of levonorgestrel and ethinyl estradiol across the skin barrier, traditional Franz diffusion cells were used. Human cadaver skin epidermis was used as the substrate throughout all flux experiments to mimic in vivo conditions.
# Prior to beginning the diffusion experiment, human cadaver epidermis was separated from underlying dermal tissue by floating the skin sample on 60° C. water for 2 minutes, followed by gently pealing the epidermis away from the dermal tissue with a spatula. The resulting epidermal tissue is then cut into squares having an approximate size of 2 cm×2 cm. Patch samples were then prepared by die-cutting the patches with a ⅝″ punch and arbor press. The release liner of the punched sample was then removed and the patch sample was placed on top of the epidermis with the drug adhesive layer contacting the stratum corneum. Gentle pressure was applied to the patch sample to achieve good contact between the adhesive layer and the stratum corneum.
# Franz diffusion cells were assembled by placing the epidermis-patch samples between the receptor and donor chambers of the diffusion cell and clamping the chambers together with a pinch clamp. The receptor chamber was filled with phosphate buffered saline solution at pH 7.4 with 0.2% (w/w) NaN3 added as a preservative and 2% (w/w) beta-hydroxypropylcylclodextrin added to ensure sink conditions of the receptor fluid throughout the experiment. In addition, a stir bar was added to each receptor chamber. Care was taken to ensure any air bubbles underneath the skin were removed prior to beginning the flux study. The assembled diffusion cells were then placed in a stirring dry bath heater. The receptor chambers were continually stirred throughout the experiment and the temperature maintained at 32° C. Samples were taken at regular intervals over a period seven of days with fresh receptor solution being used to replace the removed sample aliquot. Sample aliquots were analyzed via high performance liquid chromatography (HPLC) with a gradient method using water (with 0.01% (w/w) formic acid) and acetonitrile (with 0.006% (w/w) formic acid) as the mobile phases, an Eclipse Plus C8 column, and ultraviolet (UV) detection at 220 nm. Flux values were calculated from the slopes of cumulative amounts of the drug in the receptor compartment versus time.
# (§1) Transdermal delivery systems for administration of levonorgesterel and ethinyl estradiol were prepared and tested as described in Example 1, except that the adhesive polymer matrix contained levulinic acid and/or glyceryl monooleate.
# as §1, with “monooleate, and pharmaceutical grade PVP/VA S-630 (sold under the tradename Plasdone S-630 by International Specialty Products located at Wayne, N.J.) was used.” for “monooleate.”
# Transdermal flux assays measuring the flux of levonorgestrel were performed as described in Example 1.
smiles,measurement,setting,value
CCCCCCCCCCCCOC(=O)C(C)O (stereo not shown) [lauryl lactate],"flux of levonorgestrel, result in words",,increase the flux of levonorgestrel relative to control Formulation T
CCCCCCCC/C=C\CCCCCCCC(=O)OCC(O)CO (stereo not shown) [glyceryl monooleate],"flux of ethinyl estradiol, result in words","Example 1, Formulations A-I",increase the flux of ethinyl estradiol relative to control Formulation A
same,"flux of levonorgestrel, result in words","Example 1, Formulations A-I",increase the flux of levonorgestrel relative to control Formulation A
same,"flux of levonorgestrel, result in words","Example 1, Formulations A-I, listed as Glyceryl monooleate",larger increase in the flux of levonorgestrel than levulinic acid
CC(=O)CCC(=O)O [levulinic acid],"flux of ethinyl estradiol, result in words",,increase the flux of ethinyl estradiol relative to control Formulation A
CCCCCCCCCCCCCC(=O)OC(C)C [isopropyl myristate],"flux of ethinyl estradiol, result in words",,increase the flux of ethinyl estradiol relative to control Formulation A
same,"flux of levonorgestrel, result in words",,increase the flux of levonorgestrel relative to control Formulation A
